Measured values from EP1222194B1, “7-ACYLAMINO-3-HETEROARYLTHIO-3-CEPHEM CARBOXYLIC ACID ANTIBIOTICS AND PRODRUGS THEREOF” (priority 1999, dated 2001).

Test system: S. aureus ATCC 13709 (Smith diffuse)
Assay: Murine model for lethal bacteremic peritonitis (septicemia)
Format: in vivo, mice
Conditions: Dose 5 mg/kg, subcutaneously at 0 and 2 hrs post-challenge
Method: 10 mice/group were injected intraperitoneally with 2.98x10^7 cfu S. aureus ATCC 13709 (Smith diffuse) and treated at 0 and 2hrs post-challenge with serial two-fold doses of new cephalosporin antibiotic, imipenem and vancomycin subcutaneously in order to determine the ED50. Male Swiss-Webster mice weighing originally 24.2 - 26.1 g were obtained from Charles Rivers Labs, Hollister, CA. Mice were housed 10 per cage and given free access to water and mouse chow.
Staphylococcus aureus ATCC 13709 (Smith diffuse) was grown overnight at 37 °C in Brain-heart Infusion broth (BHIB). The following morning, it was subcultured to fresh BHIB and incubated for 4-5h at 37 °C. The log-phase growth cells were washed once with physiological saline and adjusted to the desired concentration by correlation of absorbency at OD 600 nm with predetermined plate counts (NCCLS, 1994). The cell suspension was mixed with an equal volume of sterile 14% hog-gastric mucin (2). Inoculum was kept in an ice bath until used (<1h).
Mice were challenged via an injection of 0.5 mL bacterial suspension intraperitoneally. The bacterial challenge was 2.98 x 10^7 cfu/mouse.
Imipenem (Primaxin IV; Lot 7294A), vancomycin (Vancocin; Lot 8MU60W), and new cephalosporin antibiotic were prepared by serial two-fold dilutions to concentrations of 0.078 - 0.005 mg/mL, 1.2 - 0.075 mg/mL, 0.3 - 0.02 mg/mL, 0.3 - 0.02 mg/mL and 0.3 - 0.02 mg/mL respectively in sterile water (1). All antibiotics were administered subcutaneously in 0.1 mL volumes at 0 and 2 hours post-challenge. Concentrations of all compounds are based on the weight of the bioactive ingredients.
The 50% effective dose (ED50) was calculated by the probit method (3) utilizing a program entitled Probit (Nycomed-Salutar).

NCCSCc1ccncc1SC1=C(C(=O)O)N2C(=O)[C@@H](NC(=O)/C(=N\O)c3nc(N)sc3Cl)[C@H]2SC1 [Cmpd 3, (7R)-7-[(Z)-2-(2-amino-5-chlorothiazol-4-yl)-2-(hydroxyimino)acetamido]-3-[4-(2-aminoethylthiomethyl)pyrid-3-ylthio]-3-cephem-4-carboxylic acid]
Efficacy in murine septicemia %survival: 5/80%
